The source of these data is patent publication US20100323990A1, “SHIP 1 MODULATOR PRODRUGS” (THE UNIVERSITY OF BRITISH COLUMBIA, priority 2006, published 2010).

In experiment [1] the test system is J774.1a macrophage cells. As to the kind of experiment: Macrophage TNF-α NO assay (Assay 3), Griess reagent. Also: key: a ‘+’ indicates a positive result for desired activity; a ‘−’ indicates a negative result for desired activity. Format: cell-based. The conditions noted are these: 10 μg/ml test compound, LPS, supernatants after 24 hr. Put shortly: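 J774.1a macrophages pretreated 40 min with 10 μg/mL compound, then LPS (100 ng/mL for TNF-α); TNF-α by ELISA in supernatants at 2 and 5 h, NO by Griess at 24 h. Mast cells IgE-loaded (anti-DNP), compound 30 min, DNP-HSA challenge; calcium flux by fura-2 spectrofluorometry, signalling by immunoblot.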

Experiment [2] deals with CD1 mice sensitized to the hapten DNP. Description: Mouse acute cutaneous anaphylaxis model (Assay 5). Format: in vivo. The conditions noted are these: for Assay 5: Mouse acute cutaneous anaphylaxis model, desired activity: topical on ear, DNFB challenge, MPO activity.
In experiment [3] the test system is luciferase expressing OPM2 cells. As to the kind of experiment: In vivo Multiple Myeloma (MM) assay (Assay 8), OPM2 xenograft. Also on record: species or system mice. To be noted: 50 mg/kg every 3 days, subcutaneous oil depot. As for the experimental part: Assay 8) In vivo Multiple Myeloma (MM) assay. Mice were inoculated with at two sites each with 3×10^6 luciferase expressing OPM2 cells suspended in 50 μL of growth medium and 50 μL of Matrigel basement membrane matrix (Becton Dickenson; Bedford, Mass.). Tumors were injected subcutaneously in the upper and lower flanks of the mice and allowed to establish for 2 weeks. After 2 weeks, a test compound or control vehicle was administered in a subcutaneous oil depot at a dose of 50 mg/kg every 3 days.
Tumors were measured using bioluminescence imaging on the Xenogen IVIS 200. Mice received intra-peritoneal injections of 200 μL of D-luciferin at 3.75 mg/mL in sterile PBS. Mice were then anesthetized with isofluorane and imaged 15 minutes post-injection of luciferin. Quantification of tumor size was performed using the Living Image™ software.
MM Xenograft murine model. Mice were inoculated with at two sites each with 3×10^6 luciferase expresseing OPM2 cells suspended in 50 μL of growth medium and 50 μL of Matrigel basement membrane matrix (Becton Dickenson; Bedford, Mass.). Tumors were injected subcutaneously in the upper and lower flanks of the mice and allowed to establish for 2 weeks. […]
Tumors were measured using bioluminescence imaging on the Xenogen IVIS 200. […] Quantification of tumor size was performed using the Living Image™ software. […]

For the molecule `Cc1cc(O)c(O)c2c1[C@]1(C)CCC3C(C)(C)CCC[C@]3(C)[C@H]1C2` (stereo partly shown) [AQX-016A], the “Assay 3: Macrophage NO assay, desired activity” value in experiment [1] is recorded as “+”. In addition, the “Assay 5: Mouse acute cutaneous anaphylaxis model, desired activity” value in experiment [2] is reported as “+”. In addition, the “Assay 8: In vivo Multiple Myeloma (MM) assay, desired activity” value in experiment [3] is recorded as “+”.
As for `Cc1cc(O)cc2c1[C@]1(C)CCC3C(C)(C)CCC[C@]3(C)[C@H]1C2` (stereo partly shown) [Compound 100], in experiment [1], the “Assay 3: Macrophage NO assay, desired activity” value is “+”. In addition, the “Assay 5: Mouse acute cutaneous anaphylaxis model, desired activity” value in experiment [2] is on record as “+”. In addition, in experiment [2] (topically applied, vs vehicle control-treated ear), the “allergen (DNFB)-induced inflammation of the ear” value is on record as “dramatically inhibited allergen-induced inflammation”. For the same molecule, in experiment [3], the “Assay 8: In vivo Multiple Myeloma (MM) assay, desired activity” value is reported as “+”.
